Assay results taken from ChEMBL document CHEMBL3508693.

Legend:
Format in all cases: cell-free
Mus musculus = species on record: Mus musculus; experiment: In vitro plasma protein binding (reported as Fu[%]) of 10,000 ng.ml-1 [14C] aliskiren hemifumarate in pooled plasma samples of mouse; parameters: conc 10000 ng.ml-1, sampling time 1 h; conditions: CD-1(ICR)BR, tested as the 14C-labelled form, at 10000 ng/mL
Rattus norvegicus = species on record: Rattus norvegicus; experiment: In vitro plasma protein binding (reported as Fu[%]) of 10,000 ng.ml-1 [14C] aliskiren hemifumarate in pooled plasma samples of rat; parameters: conc 10000 ng.ml-1, sampling time 1 h; conditions: WI(Glx/BRL/Han)BR, tested as the 14C-labelled form, at 10000 ng/mL
Oryctolagus cuniculus = species on record: Oryctolagus cuniculus; experiment: In vitro plasma protein binding (reported as Fu[%]) of 10,000 ng.ml-1 [14C] aliskiren hemifumarate in pooled plasma samples of rabbit; parameters: conc 10000 ng.ml-1, sampling time 1 h; conditions: New Zealand White, tested as the 14C-labelled form, at 10000 ng/mL
Callithrix jacchus = species on record: Callithrix jacchus; experiment: In vitro plasma protein binding (reported as Fu[%]) of 10,000 ng.ml-1 [14C] aliskiren hemifumarate in pooled plasma samples of marmoset; parameters: conc 10000 ng.ml-1, sampling time 1 h; conditions: tested as the 14C-labelled form, at 10000 ng/mL
Homo sapiens [1] = species on record: Homo sapiens; experiment: (§1) In vitro plasma protein binding (reported as Fu[%]) of 500 ng.ml-1 [14C] aliskiren hemifumarate in human; parameters: conc 500 ng.ml-1, sampling time 1 h; conditions: tested as the 14C-labelled form, at 500 ng/mL
Homo sapiens [2] = species on record: Homo sapiens; experiment: as §1; parameters: conc 500 ng.ml-1, sampling time 1 h; conditions: tested as the 14C-labelled form, at 500 ng/mL; remark: listed apart in the source
Homo sapiens [3] = species on record: Homo sapiens; experiment: as §1; parameters: conc 500 ng.ml-1, sampling time 1 h; conditions: tested as the 14C-labelled form, at 500 ng/mL; remark: listed apart in the source

COCCCOc1cc(C[C@@H](C[C@H](N)[C@@H](O)C[C@H](C(=O)NCC(C)(C)C(N)=O)C(C)C)C(C)C)ccc1OC
Fu (Mus musculus): 28.8% | Fu (Rattus norvegicus): 38.3% | Fu (Oryctolagus cuniculus): 42.5% | Fu (Callithrix jacchus): 8.1% | Fu (Homo sapiens [1]): 49.8% | Fu (Homo sapiens [2]): 47.3% | Fu (Homo sapiens [3]): 51.4%
